In US20110178015A1, “METHODS OF TREATMENT USING BIASED LIGANDS FOR RECEPTORS SUCH AS THE PTH RECEPTOR” (priority 2007, published 2011):
“Also recorded” adds a separate entry of the source.

Legend:
[1] = tested on: WT and β-arrestin 2−/− mice; test: qCT of the midfemoral shaft (cortical bone); type: in vivo; conditions: for femoral periosteal circumference / midshaft cortical thickness: WT mice; for femoral periosteal circumference / midshaft cortical thickness / cortical thickness / periosteal circumference: 8 wks; for endosteal bone surfaces: WT or β-arrestin−/− mice, data not shown; for cortical thickness / periosteal circumference: β-arrestin 2−/− mice
Description: Finally, the effects of PTH(1-34) and PTH-βarr on cortical bone were examined by qCT of the midfemoral shaft (FIGS. 3D and E). […] However the β-arrestin 2−/− mice had greater midshaft cortical thickness than vehicle treated WT mice. […] The biased agonist, PTH-βarr had no effect on these cortical indices in WT mice.

endogenous PTH1R [2] = target: T1, endogenous PTH1R (Mus musculus, UniProt P41593); test: cAMP accumulation in primary osteoblasts (POB); type: cell-based, mice; conditions: 100 nM PTH(1-34) or 1 μM PTH-βarr, 5 min
T1 construct: stimulation of endogenous PTH1R in primary murine osteoblasts (POB); endogenous in cells; host or cells: primary osteoblasts (POB) from WT and β-arrestin 2−/− C57BL/6 mice
T1 sequence (P41593 27-591): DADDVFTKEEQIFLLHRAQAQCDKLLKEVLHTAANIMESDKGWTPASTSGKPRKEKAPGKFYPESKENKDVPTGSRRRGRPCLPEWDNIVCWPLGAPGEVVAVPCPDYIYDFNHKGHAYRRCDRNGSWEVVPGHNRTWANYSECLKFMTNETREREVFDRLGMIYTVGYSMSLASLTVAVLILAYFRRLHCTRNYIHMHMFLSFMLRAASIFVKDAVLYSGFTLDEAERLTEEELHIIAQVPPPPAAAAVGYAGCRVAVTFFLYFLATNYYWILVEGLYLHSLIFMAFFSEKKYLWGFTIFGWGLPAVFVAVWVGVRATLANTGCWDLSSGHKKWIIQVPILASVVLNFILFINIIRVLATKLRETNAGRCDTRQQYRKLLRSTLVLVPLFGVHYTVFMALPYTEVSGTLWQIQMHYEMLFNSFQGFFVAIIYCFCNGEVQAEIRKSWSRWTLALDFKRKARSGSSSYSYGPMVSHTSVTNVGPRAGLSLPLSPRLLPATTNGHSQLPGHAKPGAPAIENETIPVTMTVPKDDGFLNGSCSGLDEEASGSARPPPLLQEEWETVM
Protocol: FIG. 1. […] Cells were treated with 100 nM PTH(1-34) (PTH) or 1 μM PTH-βarr. […] Data correspond to the mean±SEM from four independent experiments. (***, P<0.001 compared with the nonstimulated WT POB; †††, P<0.001; ††, P<0.01 compared with the non-stimulated β-arrestin 2−/− POBs).
The increased basal cAMP in the β-arrestin cells is likely due to the loss of β-arrestin mediated desensitization of PTH1R and/or other Gs coupled 7TMRs.
There was no significant difference in cAMP generated between WT and β-arrestin 2−/−POB at 5 min.

[3] = tested on: WT and β-arrestin 2−/− mice; test: 24 hour urine deoxypyridinoline (DPD), marker of bone resorption; type: in vivo; conditions: 4 weeks of treatment
Protocol: (§1) FIG. 5. PTH-βarr increases serum osteocalcin and has no effect on urine Deoxypyridinoline (DPD) excretion. (a) Serum osteocalcin, a biochemical marker of bone formation was measured in WT and β-arrestin 2−/− mice after 4 weeks of treatment with vehicle, PTH (1-34) (PTH) or PTH-βarr. […] There was no increase in serum osteocalcin in the arrestin 2−/− mice treated with PTH-βarr compared to placebo. […] (b) 24 hour urine DPD, a marker of bone degradation and bone resorption, was also measured in WT and β-arrestin 2−/− mice after 4 weeks of treatment with vehicle, PTH or PTH-βarr. […] Data represent the mean±SEM of at least 7 independent mouse measurements. (***, P<0.001; *, P<0.05; compared with vehicle treated WT mice; †††, P<0.001; ††, P<0.01 compared with vehicle treated β-arrestin 2−/− mice).
265. 24 hour urine deoxypyridinoline (DPD), a marker of bone degradation and bone resorption, was also measured. […] The increase in urine DPD excretion in the PTH(1-34) treated β-arrestin 2−/− mice compared to WT further supports the hypothesis that osteoblast-osteoclast coupling is meditated primarily through G protein dependent mechanisms that are disinhibited in the absence of β-arrestin 2.

[4] = tested on: WT and β-arrestin 2−/− mice; test: Quantitative histomorphometry of lumbar spine sections; type: in vivo; conditions: for osteoblast surface vs vehicle / osteoclast surface (osteoclast recruitment) / osteoid surface vs vehicle: WT mice, 8 wks, lumbar spine sections
Description: Dynamic histomorphometric data were consistent with the qCT of trabecular bone morphology. […] As expected there was an increase in osteoclast surface in the PTH (1-34) treated animals.

endogenous PTH1R [5] = target: T1, endogenous PTH1R; test: Gq/11 PI hydrolysis in POB cultures; type: cell-based, mice; conditions: data not shown
ERK1/2 = ERK1/2 MAP kinase activation (phosphorylation) in primary osteoblasts; type: cell-based, mice; conditions: 5 min, 100 nM PTH(1-34) or 1 μM PTH-βarr; for ERK1/2 phosphorylation: WT POB; for ERK1/2 activation: β-arrestin 2−/− POB
Protocol: FIG. 2 PTH-βarr stimulates β-arrestin mediated ERK1/2 activation. PTH-βarr stimulated ERK1/2 activation, was assessed in POBs isolated from β-arrestin 2−/− and WT C57BL/6 mice. POBs were treated with 100 nM PTH(1-34) (PTH) or 1 μM PTH-βarr for 5 min. […] The effect of PTH-barr stimulation on ERK1/2 activation in the WT obs was absent in the β-arrestin 2−/− obs. Values presented are the fold ERK1/2 phosphorylation over non-stimulated controls. Data represent the mean±SEM from four independent experiments. (**, P<0.01 compared with the non-stimulated WT POBs; ††, P<0.01 compared with the non-stimulated β-arrestin 2−/− POBs).
PTH(1-34) and PTH-βarr stimulated ERK1/2 MAP kinase activation was assessed in WT and β-arrestin 2−/− POB after treatment for 5 min with 100 nM PTH(1-34) or 1 μM PTH-βarr (FIG. 1b).

[6] = tested on: WT and β-arrestin 2−/− mice; test: Serum osteocalcin, marker of bone formation; type: in vivo; conditions: 4 weeks of treatment
Protocol: as §1
To delineate the cellular mechanisms contributing to the metabolic effects of PTH(1-34) and PTH-βarr administration in WT and β-arrestin 2−/− mice, serum and urine markers of bone turnover were assessed.

Substance | femoral periosteal circumference [1] | midshaft cortical thickness [1] | endosteal bone surfaces [1] | cortical thickness [1] | periosteal circumference [1] | cAMP accumulation (endogenous PTH1R [2]; WT POB) | cAMP accumulation (endogenous PTH1R [2]; β-arrestin 2−/− POB) | 24 hour urine DPD vs vehicle ([3]; WT mice) | 24 hour urine DPD vs vehicle ([3]; β-arrestin 2−/− mice) | osteoblast surface vs vehicle [4] | osteoclast surface (osteoclast recruitment) [4] | osteoid surface vs vehicle [4] | Gq/11 PI hydrolysis (endogenous PTH1R [5]) | ERK1/2 activation (ERK1/2) | serum osteocalcin vs vehicle ([6]; WT mice) | serum osteocalcin vs vehicle ([6]; β-arrestin 2−/− mice) | other results
PTH(1-34) [reference compound] | increased | increased | no significant effects | no significant effect | no significant effect | robust increases | robust increases | significantly increased | significantly increased | increased | increase | increased | did not activate | responded to PTH(1-34) much as WT POB | significantly increased | increased | cAMP accumulation (endogenous PTH1R [2]; WT POB, listed as PTH): robust increase; cAMP accumulation (endogenous PTH1R [2]; β-arrestin 2−/− POB, listed as PTH): robust increase; 24 hour urine DPD vs vehicle ([3]; β-arrestin 2−/− mice, listed as PTH): increase; osteoclast formation ([4]; in the absence of β-arrestin 2): accelerates; ERK1/2 phosphorylation (ERK1/2): approximately 3 fold over basal; ERK1/2 phosphorylation (ERK1/2; listed as PTH): robustly activated; serum osteocalcin vs vehicle ([6]; WT mice, listed as PTH): significantly increase
(D-Trp12, Tyr34)-PTH(7-34) [PTH-βarr] | no effect | no effect | no significant effects | significantly decreased | significantly decreased | unable to stimulate cAMP; also recorded: did not increase cAMP | decreases basal cAMP levels; also recorded: significantly decreased | no significant effect | no significant effect | increased | no effect | increased | did not activate | failed to activate ERK1/2 | significantly increased | no increase; also recorded: no significant change | ERK1/2 activation (ERK1/2; listed as PTH-barr): absent
